Measurements taken from the supplement of paper PMC11061612.

Tests used:
Assay in all cases: Bliss excess, mean over the matrix (fraction); higher = more synergy
[1] = test system: B-CPAP (Thyroid Gland Carcinoma)
Outline: (§1)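 Bliss excess equals the observed combination effect minus the expected value EA + EB − EA·EB, where EA and EB are the effects of each agent alone. Combination Emax is the second-highest inhibition within the matrix. Inhibition was scaled from CellTiter-Glo 2.0 luminescence, with 0 set by vehicle wells and 1 by blank wells, after 72 hours of two-drug dosing of cells plated in 1536-well plates.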

[2] = test system: HT-1376 (Bladder Carcinoma)
Outline: as §1

[3] = test system: CAL-148 (Breast Carcinoma)
Outline: as §1

[4] = test system: LNCaP-Clone-FGC (Prostate Carcinoma)
Outline: as §1

[5] = test system: HuP-T4 (Pancreatic Carcinoma)
Outline: as §1

[6] = test system: KURAMOCHI (Ovarian Carcinoma)
Outline: as §1

NB10 (Neuroblastoma) = test system: NB10 (Neuroblastoma)
Outline: as §1

[7] = test system: LB831-BLC (Bladder Carcinoma)
Outline: as §1

[8] = test system: KYSE-520 (Esophageal Squamous Cell Carcinoma)
Outline: as §1

[9] = test system: OVCA420 (Ovarian Carcinoma)
Outline: as §1

[10] = test system: KP-1N (Pancreatic Carcinoma)
Outline: as §1

[11] = test system: Calu-3 (Lung Adenocarcinoma)
Outline: as §1

[12] = test system: MDA-MB-361 (Breast Carcinoma)
Outline: as §1

[13] = test system: Daoy (Other Solid Carcinomas)
Outline: as §1

[14] = test system: CaR-1 (Colorectal Carcinoma)
Outline: as §1

[15] = test system: LS-180 (Colorectal Carcinoma)
Outline: as §1

[16] = test system: Hs-578-T (Breast Carcinoma)
Outline: as §1

[17] = test system: HCC1806 (Breast Carcinoma)
Outline: as §1

KELLY (Neuroblastoma) = test system: KELLY (Neuroblastoma)
Outline: as §1

[18] = test system: MFE-296 (Endometrial Carcinoma)
Outline: as §1

Compound | Bliss excess [1] | Bliss excess [2] | Bliss excess [3] | Bliss excess [4] | Bliss excess [5] | Bliss excess [6] | Bliss excess (NB10 (Neuroblastoma)) | Bliss excess [7] | Bliss excess [8] | Bliss excess [9] | Bliss excess [10] | Bliss excess [11] | Bliss excess [12] | Bliss excess [13] | Bliss excess [14] | Bliss excess [15] | Bliss excess [16] | Bliss excess [17] | Bliss excess (KELLY (Neuroblastoma)) | Bliss excess [18]
Cc1c2c(nn1C)CSCc1cc(n(C)n1)CSc1cc(c3ccccc3c1)OCCCc1c(C(=O)O)n(C)c3c-2c(Cl)ccc13 [AZD5991] + C1CN(CCC1(C(=O)N[C@@H](CCO)C2=CC=C(C=C2)Cl)N)C3=NC=NC4=C3C=CN4 [Capivasertib] (first compound max 1 µM, 7x7, partner max 3 µM) | -0.0249 | -0.01 | 0.0486 | -0.043 | 0.0085 | 0.0205 | -0.0316 | 0.0133 | -0.0068 | 0.0186 | 0.0154 | 0.0134 | 0.0211 | 0.0248 | -0.0295 | 0.0195 | -0.0866 | 0.0085 | 0.0246 | 0.094
Cc1cc2ncnn2cc1Nc1ncc2c(n1)n(C1CCOCC1)c(=O)n2C [AZD7648] + CCN(CCO)CCCOc1ccc2c(Nc3cc(CC(=O)Nc4cccc(F)c4)[nH]n3)ncnc2c1 [AZD2811] (first compound max 10 µM, 7x7, partner max 1 µM) | -0.0264 | -0.0382 | -0.0213 | -0.003 | 0.0254 | 0.0084 | 0.0524 | -0.0477 | 0.0138 | -0.0057 | -0.02 | 0.002 | -0.0082 | 0.0083 | -0.0102 | 0.0165 | -0.0561 | 0.071 | 0.0518 | -0.0112
C[C@@H](c1ccc2nccn2c1)n1nnc2ncc(-c3cnn(C)c3)nc21 [Savolitinib] + CC1(C)CCC(CN2CCN(c3ccc(C(=O)NS(=O)(=O)c4ccc(NCC5CCOCC5)c([N+](=O)[O-])c4)c(Oc4cnc5[nH]ccc5c4)c3)CC2)=C(c2ccc(Cl)cc2)C1 [Venetoclax] (first compound max 1 µM, 7x7, partner max 1 µM) | -0.0453 | -0.0443 | -0.0359 | -0.0593 | -0.0575 | -0.0274 | -0.0389 | -0.0978 | -0.0774 | -0.0505 | -0.0646 | -0.0347 | -0.0349 | -0.0185 | -0.0617 | -0.0201 | -0.0363 | -0.0367 | -0.0038 | -0.0427
COc1cc2ncnc(Nc3ccc(F)c(Cl)c3)c2cc1OCCCN1CCOCC1 [Gefitinib] + CC(C)n1c(=O)n(C)c2cnc3cc(F)c(-c4ccc(OCCCN5CCCCC5)nc4)cc3c21 [AZD1390] (first compound max 10 µM, 7x7, partner max 0.3 µM) | -0.0752 | -0.0387 | -0.0344 | -0.0491 | -0.0574 | -0.0401 | -0.0629 | -0.0482 | -0.043 | -0.0193 | -0.0625 | -0.048 | -0.0535 | -0.0373 | -0.0812 | -0.0623 | -0.0685 | -0.0425 | -0.0388 | -0.0483
CCc1c2c(nc3ccc(O)cc13)-c1cc3c(c(=O)n1C2)COC(=O)[C@]3(O)CC [SN-38] + CN(C)CCCOc1ccc(-c2ccc3ncc4c(c3c2)n(C2CCOCC2)c(=O)n4C)cn1 [AZD0156] (first compound max 0.3 µM, 7x7, partner max 1 µM) | 0.0105 | -0.0547 | -0.0174 | -0.0804 | 0.0028 | 0.0421 | -0.0533 | 0.0223 | -0.0071 | -0.008 | 0.0531 | 0.0092 | -0.063 | 0.0666 | 0.0109 | 0.0439 | 0.169 | -0.0222 | 0.0155 | -0.0007
NC1(C(=O)N[C@@H](CCO)c2ccc(Cl)cc2)CCN(c2ncnc3[nH]ccc23)CC1 [Capivasertib] + CC(=O)c1c(C)c2cnc(Nc3ccc(N4CCNCC4)cn3)nc2n(C2CCCC2)c1=O [Palbociclib] (first compound max 10 µM, 7x7, partner max 10 µM) | -0.046 | -0.0388 | -0.0215 | 0.0242 | -0.0118 | -0.0124 | 0.0232 | -0.0586 | -0.0342 | 0.0261 | 0.0023 | 0.0775 | -0.0161 | 0.0306 | 0.0034 | 0.0189 | 0.0324 | 0.0075 | 0.151 | -0.0349
COc1nnc2ccc(N3CCC(c4ccc(OCCN5CCN(C)C(=O)[C@H]5C)cc4)CC3)nn12 [AZD5153] + Cc1c2c(nn1C)CSCc1cc(n(C)n1)CSc1cc(c3ccccc3c1)OCCCc1c(C(=O)O)n(C)c3c-2c(Cl)ccc13 [AZD5991] (first compound max 1 µM, 7x7, partner max 1 µM) | -0.0224 | -0.0135 | 0.0117 | -0.0722 | -0.0461 | 0.0332 | -0.0446 | -0.0588 | -0.0457 | -0.0933 | -0.0176 | -0.0288 | -0.0406 | -0.0133 | -0.0548 | -0.0279 | -0.0338 | -0.0137 | 0.0357 | 0.028
Cc1cc2ncnn2cc1Nc1ncc2c(n1)n(C1CCOCC1)c(=O)n2C [AZD7648] + C=CCn1c(=O)c2cnc(Nc3ccc(N4CCN(C)CC4)cc3)nc2n1-c1cccc(C(C)(C)O)n1 [AZD1775] (first compound max 10 µM, partner max 1 µM) | -0.0273 | 0.0121 | 0.0051 | -0.0273 | 0.0417 | -0.0501 | -0.0812 | -0.0611 | 0.0058 | -0.0186 | -0.0681 | -0.0073 | -0.0854 | 0.0018 | 0.0022 | -0.0272 | -0.121 | 0.0373 | 0.015 | -0.0096
Cc1c2c(nn1C)CSCc1cc(n(C)n1)CSc1cc(c3ccccc3c1)OCCCc1c(C(=O)O)n(C)c3c-2c(Cl)ccc13 [AZD5991] + CC1(C)CCC(CN2CCN(c3ccc(C(=O)NS(=O)(=O)c4ccc(NCC5CCOCC5)c([N+](=O)[O-])c4)c(Oc4cnc5[nH]ccc5c4)c3)CC2)=C(c2ccc(Cl)cc2)C1 [Venetoclax] (first compound max 1 µM, 7x7, partner max 1 µM) | -0.0306 | -0.0465 | -0.0177 | -0.0476 | -0.0106 | 0.0511 | 0.0065 | -0.0229 | -0.0306 | -0.0045 | -0.0262 | 0.0015 | 0.0194 | 0.0496 | -0.0225 | 0.0019 | -0.0513 | -0.0299 | 0.249 | -0.002
Cc1c2c(nn1C)CSCc1cc(n(C)n1)CSc1cc(c3ccccc3c1)OCCCc1c(C(=O)O)n(C)c3c-2c(Cl)ccc13 [AZD5991] + CCN(CCO)CCCOc1ccc2c(Nc3cc(CC(=O)Nc4cccc(F)c4)[nH]n3)ncnc2c1 [AZD2811] (first compound max 1 µM, 7x7, partner max 1 µM) | 0.0082 | -0.0077 | 0.0597 | 0.0567 | -0.0024 | -0.0046 | 0.0335 | 0.0076 | -0.0272 | -0.0245 | -0.0662 | -0.0024 | 0.0399 | 0.0678 | -0.0004 | 0.0652 | 0.0487 | 0.0297 | 0.0071 | 0.0533
CN(CCO)CC[C@H](CSc1ccccc1)Nc1ccc(S(=O)(=O)NC(=O)c2ccc(N3CCC([C@@H](O)c4ccccc4-c4ccc(Cl)cc4)CC3)cc2)cc1S(=O)(=O)C(F)(F)F [AZD4320] + C[C@@H]1COCCN1C2=NC(=NC(=C2)C3(CC3)[S@](=N)(=O)C)C4=C5C=CNC5=NC=C4 [AZD6738] (first compound max 1 µM, 7x7, partner max 10 µM) | -0.0422 | 0.0078 | -0.0231 | -0.0328 | 0.0013 | 0.0158 | -0.0515 | -0.0415 | -0.0026 | 0.006 | -0.0135 | -0.006 | -0.0402 | 0.0178 | 0.0178 | -0.0306 | -0.136 | 0.0208 | 0.033 | 0.0178
CC1(C)CCC(CN2CCN(c3ccc(C(=O)NS(=O)(=O)c4ccc(NCC5CCOCC5)c([N+](=O)[O-])c4)c(Oc4cnc5[nH]ccc5c4)c3)CC2)=C(c2ccc(Cl)cc2)C1 [Venetoclax] + C[C@@H]1COCCN1C2=NC(=NC(=C2)C3(CC3)[S@](=N)(=O)C)C4=C5C=CNC5=NC=C4 [AZD6738] (first compound max 1 µM, 7x7, partner max 10 µM) | -0.0136 | -0.0365 | -0.0501 | -0.0645 | -0.037 | -0.0451 | 0.0159 | 0.0045 | -0.0353 | 0.0047 | -0.0217 | -0.0023 | -0.0214 | -0.028 | -0.0005 | -0.0174 | -0.122 | -0.0665 | 0.0209 | -0.0296
CC(=O)c1c(C)c2cnc(Nc3ccc(N4CCNCC4)cn3)nc2n(C2CCCC2)c1=O [Palbociclib] + Cc1c2c(nn1C)CSCc1cc(n(C)n1)CSc1cc(c3ccccc3c1)OCCCc1c(C(=O)O)n(C)c3c-2c(Cl)ccc13 [AZD5991] (first compound max 10 µM, 7x7, partner max 1 µM) | -0.0722 | -0.0073 | -0.0063 | 0.0049 | -0.0184 | 0.0188 | 0.0435 | -0.0092 | -0.0686 | -0.0313 | -0.0384 | -0.0039 | -0.0789 | -0.0112 | -0.0621 | -0.0515 | 0.0238 | -0.0164 | 0.0123 | -0.0142
CN(C)CCCOc1ccc(-c2ccc3ncc4c(c3c2)n(C2CCOCC2)c(=O)n4C)cn1 [AZD0156] + CCN(CCO)CCCOc1ccc2c(Nc3cc(CC(=O)Nc4cccc(F)c4)[nH]n3)ncnc2c1 [AZD2811] (first compound max 1 µM, 7x7, partner max 1 µM) | -0.0224 | -0.0665 | -0.0262 | -0.0257 | -0.005 | -0.0357 | -0.0464 | -0.0356 | 0.005 | -0.0308 | 0.0312 | -0.0295 | -0.0078 | 0.0069 | -0.0097 | -0.0264 | -0.0708 | -0.003 | 0.0099 | -0.0356
